Each structure is given as a SMILES string. pIC50: −log10 of the molar value. Where only a bound is given, the exact number is not on record here.

In the first assay the target is human recombinant GPR65 (Homo sapiens, UniProt Q8IYL9). The assay is described as follows: Human GPR65 cAMP HTRF antagonist assay.
human recombinant GPR65, sequence (Q8IYL9 whole entry): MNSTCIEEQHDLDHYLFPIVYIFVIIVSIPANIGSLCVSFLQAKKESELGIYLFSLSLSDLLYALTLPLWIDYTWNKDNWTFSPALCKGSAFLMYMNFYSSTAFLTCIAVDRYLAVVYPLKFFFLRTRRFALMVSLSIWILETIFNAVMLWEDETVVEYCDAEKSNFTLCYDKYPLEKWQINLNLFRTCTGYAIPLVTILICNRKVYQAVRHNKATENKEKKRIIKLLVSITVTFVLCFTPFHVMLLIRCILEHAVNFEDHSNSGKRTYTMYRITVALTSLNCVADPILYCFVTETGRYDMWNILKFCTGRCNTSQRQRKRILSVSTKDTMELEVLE
Conditions: not given
Type of assay: cell-based. From the text: The “Human GPR65 cyclic adenosine monophosphate (cAMP) Homogeneous Time Resolved Fluorescence (HTRF) antagonist assay”, or simply “cAMP assay”, as described below, can be used to measure the potency of GPR65 modulators, which is expressed as the concentration of compound required to reduce the increase in cAMP concentration upon GPR65 activation by 50% (i.e. an IC50).
Human GPR65 Cyclic Adenosine Monophosphate (cAMP) Homogeneous Time Resolved Fluorescence (HTRF) Antagonist Assay Procedure
IC50 data was obtained by the following procedure:
1321N1 human astrocytoma cells stably expressing human recombinant GPR65 (1321N1-hrGPR65 cells, EuroscreenFast) were cultured according to the vendor's instructions.
Compounds were tested for their ability to antagonise GPR65, through measuring the concentration of cytoplasmic cAMP following treatment of the cells at a pH of 7.2 to activate GPR65 signalling and addition of the compound to be tested. The extent to which the expected rise in cAMP concentration upon GPR65 activation was suppressed by the added compound is indicative of its potency. The assay was carried out according to EuroscreenFast assay methodology as follows.
On the day of the assay, test compounds were added to 384-well, low volume, white microtiter plates by acoustic dispensing. KRH buffer (5 mM KCl, 1.25 mM MgSO4, 124 mM NaCl, 25 mM HEPES, 13.3 mM Glucose, 1.25 mM KH2PO4 and 1.45 mM CaCl2) was adjusted to pH 6.5, pH 7.6 and pH 8.4 by adding NaOH. 1321N1-hGPR65 cells were rapidly thawed and diluted in KRH, pH 7.6 prior to centrifugation at 300×g for 5 min and resuspension in assay buffer (KRH, pH 7.6, supplemented with 1 mM 3-isobutyl-1-methylxanthine (IBMX) and 200 μM ethylenediaminetetraacetic acid (EDTA)). Cells were added to assay plates at a density of 2,000 cells per well in a volume of 5 μl. Assay plates were briefly centrifuged at 100×g and then incubated at room temperature for 30 min. Cells were stimulated by the addition of 5 μL KRH, pH 6.5, to achieve an assay pH of 7.2, while control wells received 5 μl KRH, pH 8.4 to achieve an assay pH of 7.9. Assay plates were briefly centrifuged at 100×g and then incubated at room temperature for 30 min.
Accumulation of cAMP was detected by cAMP HTRF kit (Cisbio). d2-labeled cAMP and cryptate-labeled anti-cAMP antibody in Lysis and Detection Buffer (Cisbio) were added to assay plates, and the plates were incubated at room temperature for 1 h. HTRF measurements were performed using a Pherastar FSX instrument. Acceptor and donor emission signals were measured at 665 nm and 620 nm, respectively, and HTRF ratios were calculated as signal665 nm/signal620nm×10^4. Data were normalised to high and low control values and fitted with 4-parameter logistic regression to determine hGPR65 IC50 values for the test compounds, which are shown in Table 1.
In general terms: Time-resolved FRET reads energy transfer from a long-lived donor to a nearby acceptor.
For orientation: pIC50 means −log10 of the IC50, conventionally taken in molar units. Take `O=C(Nc1cncc(Cl)c1)N1C2CCC1c1ccnc(F)c1C2` (racemic) [Compound 9, (±)-N-(5-chloropyridin-3-yl)-1-fluoro-6,7,8,9-tetrahydro-5H-5,8-epiminocyclohepta-[c]pyridine-10-carboxamide]: the pIC50 is more than 6.30. On the same count and under the same terms, to `O=C(Nc1cc(Cl)c(Cl)cn1)N1C2CCC1c1c[nH]c(=O)c(F)c1C2` (racemic) [Compound 11, (±)-N-(4,5-dichloropyridin-2-yl)-4-fluoro-3-oxo-3,5,6,7,8,9-hexahydro-2H-6,9-epiminocyclohepta[c]pyridine-10-carboxamide] belongs more than 6.30.

Still in this assay, the particulars now being: 1321N1-hrGPR65 cells, assay pH of 7.2, cAMP HTRF; read-out: hGPR65 IC50.
For the molecule `O=C(Nc1cnc(C(F)(F)F)cn1)N1C2CCC1c1cncnc1C2` (racemic) [Compound 6, (±)-N-(5-(trifluoromethyl)pyrazin-2-yl)-6,7,8,9-tetrahydro-5H-5,8-epiminocyclohepta-[d]pyrimidine-10-carboxamide], the negative logarithm of the IC50 (pIC50) was less than 5.30.

As for `O=C(Nc1ccc(Oc2ccccc2)nc1)N1C2CCC1c1ccnc(F)c1C2` (racemic) [Compound 8, (±)-1-fluoro-N-(6-phenoxypyridin-3-yl)-6,7,8,9-tetrahydro-5H-5,8-epiminocyclohepta-[c]pyridine-10-carboxamide], the pIC50 was 5.30 to 6.30.

As to `O=C(Nc1cc(Cl)c(C(F)(F)F)cn1)N1C2CCC1c1cncnc1C2` (racemic) [Compound 28, (±)-N-(4-chloro-5-(trifluoromethyl)pyridin-2-yl)-6,7,8,9-tetrahydro-5H-5,8-epiminocyclo-hepta[d]pyrimidine-10-carboxamide], the pIC50 is 5.30 to 6.30. On the same count and under the same terms, to `O=C(Nc1cc(Cl)c(C(F)(F)F)cn1)N1[C@H]2CC[C@@H]1c1ccnc(F)c1C2` [Compound 1, (5R,8S)-N-(4-chloro-5-(trifluoromethyl)pyridin-2-yl)-1-fluoro-6,7,8,9-tetrahydro-5H-5,8-epiminocyclohepta[c]pyridine-10-carboxamide] belongs more than 6.30. Still for that read-out and setting: to `O=C(Nc1cc(Cl)c(Cl)cn1)N1[C@H]2CC[C@@H]1c1ccnc(F)c1C2` [Compound 2, (5R,8S)-N-(4,5-dichloropyridin-2-yl)-1-fluoro-6,7,8,9-tetrahydro-5H-5,8-epiminocyclohepta[c]pyridine-10-carboxamide] belongs more than 6.30; to `O=C(Nc1ccc(Cl)c(Cl)n1)N1[C@H]2CC[C@@H]1c1ccnc(F)c1C2` [Compound 3, (5R,8S)-N-(5,6-dichloropyridin-2-yl)-1-fluoro-6,7,8,9-tetrahydro-5H-5,8-epiminocyclohepta[c]pyridine-10-carboxamide], 5.30 to 6.30. `O=C(Nc1cc(Cl)c(Cl)cn1)N1[C@H]2CC[C@@H]1c1c[nH]c(=O)cc1C2` [Compound 4, (6S,9R)-N-(4,5-dichloropyridin-2-yl)-3-oxo-3,5,6,7,8,9-hexahydro-2H-6,9-epiminocyclo-hepta[c]pyridine-10-carboxamide]: the pIC50 was more than 6.30. On to `O=C(Nc1ccc(Cl)c(Cl)n1)N1[C@H]2CC[C@@H]1c1c[nH]c(=O)cc1C2` [Compound 5, (6S,9R)-N-(5,6-dichloropyridin-2-yl)-3-oxo-3,5,6,7,8,9-hexahydro-2H-6,9-epiminocyclo-hepta[c]pyridine-10-carboxamide], for which the pIC50 is less than 5.30. The same measure, in the same setting: to `O=C(Nc1ccc2nc(C(F)(F)F)ccc2c1)N1[C@H]2CC[C@@H]1c1c[nH]c(=O)cc1C2` [Compound 10, (6S,9R)-3-oxo-N-(2-(trifluoromethyl)quinolin-6-yl)-3,5,6,7,8,9-hexahydro-2H-6,9-epiminocyclohepta[c]pyridine-10-carboxamide] belongs more than 6.30. On the same count and under the same terms, to `O=C(Nc1cnc(Cl)c(Cl)c1)N1[C@H]2CC[C@@H]1c1c[nH]c(=O)cc1C2` [Compound 13, (6S,9R)-N-(5,6-dichloropyridin-3-yl)-3-oxo-3,5,6,7,8,9-hexahydro-2H-6,9-epiminocyclo-hepta[c]pyridine-10-carboxamide] belongs more than 6.30. On the same count and under the same terms, for `O=C(Nc1cc(C(F)(F)F)ncc1F)N1[C@H]2CC[C@@H]1c1c[nH]c(=O)cc1C2` [Compound 14, (6S,9R)-N-(5-fluoro-2-(trifluoromethyl)pyridin-4-yl)-3-oxo-3,5,6,7,8,9-hexahydro-2H-6,9-epiminocyclohepta[c]pyridine-10-carboxamide] the value was 5.30 to 6.30; for `O=C(Nc1cnc(-n2nccn2)c(Cl)c1)N1[C@H]2CC[C@@H]1c1ccnc(F)c1C2` [Compound 15, (5R,8S)-N-(5-chloro-6-(2H-1,2,3-triazol-2-yl)pyridin-3-yl)-1-fluoro-6,7,8,9-tetrahydro-5H-5,8-epiminocyclohepta[c]pyridine-10-carboxamide], 5.30 to 6.30; for `O=C(Nc1cnc(Cl)cc1F)N1[C@H]2CC[C@@H]1c1ccnc(F)c1C2` [Compound 16, (5R,8S)-N-(6-chloro-4-fluoropyridin-3-yl)-1-fluoro-6,7,8,9-tetrahydro-5H-5,8-epiminocyclohepta[c]pyridine-10-carboxamide], 5.30 to 6.30. Take `O=C(Nc1cc(Cl)c(C(F)(F)F)cn1)N1[C@H]2CC[C@@H]1c1c[nH]c(=O)cc1C2` [Compound 17, (6S,9R)-N-(4-chloro-5-(trifluoromethyl)pyridin-2-yl)-3-oxo-3,5,6,7,8,9-hexahydro-2H-6,9-epiminocyclohepta[c]pyridine-10-carboxamide]: the pIC50 is more than 6.30. `O=C(Nc1cc(C(F)(F)F)ncc1F)N1[C@H]2CC[C@@H]1c1ccnc(F)c1C2` [Compound 18, (5R,8S)-1-fluoro-N-(5-fluoro-2-(trifluoromethyl)pyridin-4-yl)-6,7,8,9-tetrahydro-5H-5,8-epiminocyclohepta[c]pyridine-10-carboxamide]: the pIC50 is 5.30 to 6.30.

On to `O=C(Nc1ccc(C(F)(F)F)cn1)N1[C@H]2CC[C@@H]1c1ccnc(F)c1C2` [Compound 19, (5R,8S)-1-fluoro-N-(5-(trifluoromethyl)pyridin-2-yl)-6,7,8,9-tetrahydro-5H-5,8-epiminocyclohepta[c]pyridine-10-carboxamide], for which the pIC50 is more than 6.30. In the case of `O=C(Nc1nc(Cl)c(Cl)cc1F)N1[C@H]2CC[C@@H]1c1ccnc(F)c1C2` [Compound 20, (5R,8S)-N-(5,6-dichloro-3-fluoropyridin-2-yl)-1-fluoro-6,7,8,9-tetrahydro-5H-5,8-epiminocyclohepta[c]pyridine-10-carboxamide], the pIC50 is 5.30 to 6.30. The same measure, in the same setting: for `Cc1nonc1NC(=O)N1[C@H]2CC[C@@H]1c1ccnc(F)c1C2` [Compound 21, (5R,8S)-1-fluoro-N-(4-methyl-1,2,5-oxadiazol-3-yl)-6,7,8,9-tetrahydro-5H-5,8-epiminocyclohepta[c]pyridine-10-carboxamide] the value was 5.30 to 6.30; for `O=C(Nc1noc(-c2ccccc2)n1)N1[C@H]2CC[C@@H]1c1ccnc(F)c1C2` [Compound 22, (5R,8S)-1-fluoro-N-(5-phenyl-1,2,4-oxadiazol-3-yl)-6,7,8,9-tetrahydro-5H-5,8-epiminocyclohepta[c]pyridine-10-carboxamide], more than 6.30. For `O=C(Nc1nnc(C(F)(F)F)s1)N1[C@H]2CC[C@@H]1c1ccnc(F)c1C2` [Compound 23, (5R,8S)-1-fluoro-N-(5-(trifluoromethyl)-1,3,4-thiadiazol-2-yl)-6,7,8,9-tetrahydro-5H-5,8-epiminocyclohepta[c]pyridine-10-carboxamide], the pIC50 is more than 6.30.

Take `O=C(Nc1nnc(-c2ccncc2)s1)N1[C@H]2CC[C@@H]1c1ccnc(F)c1C2` [Compound 24, (5R,8S)-1-fluoro-N-(5-(pyridin-4-yl)-1,3,4-thiadiazol-2-yl)-6,7,8,9-tetrahydro-5H-5,8-epiminocyclohepta[c]pyridine-10-carboxamide]: the pIC50 was 5.30 to 6.30. The same measure, in the same setting: for `O=C(Nc1ncc(C(F)(F)F)cn1)N1[C@H]2CC[C@@H]1c1ccnc(F)c1C2` [Compound 25, (5R,8S)-1-fluoro-N-(5-(trifluoromethyl)pyrimidin-2-yl)-6,7,8,9-tetrahydro-5H-5,8-epiminocyclohepta[c]pyridine-10-carboxamide] the value was 5.30 to 6.30; for `CCc1nnc(NC(=O)N2[C@H]3CC[C@@H]2c2ccnc(F)c2C3)s1` [Compound 26, (5R,8S)-N-(5-ethyl-1,3,4-thiadiazol-2-yl)-1-fluoro-6,7,8,9-tetrahydro-5H-5,8-epiminocyclohepta[c]pyridine-10-carboxamide], 5.30 to 6.30.

(Values after patent US12649744B2, “N-(pyridin-2-yl)-6,7,8,9-tetrahydro-5h-5,8-epiminocyclohepta[c]pyridine-10-carboxamide derivatives and similar compounds as GPR65 modulators for the treatment of cancer” (PATHIOS THERAPEUTICS LIMITED, priority 2020, dated 2026).)
